Test results as given in ChEMBL document CHEMBL1201862, “PubChem BioAssay data set” (2004).
Calls of active or inactive are those of the source.

Columns and labels:
Protein skinhead-1 = target: T1, Protein skinhead-1 (Caenorhabditis elegans, UniProt P34707); format: functional
T1 sequence (P34707 whole entry): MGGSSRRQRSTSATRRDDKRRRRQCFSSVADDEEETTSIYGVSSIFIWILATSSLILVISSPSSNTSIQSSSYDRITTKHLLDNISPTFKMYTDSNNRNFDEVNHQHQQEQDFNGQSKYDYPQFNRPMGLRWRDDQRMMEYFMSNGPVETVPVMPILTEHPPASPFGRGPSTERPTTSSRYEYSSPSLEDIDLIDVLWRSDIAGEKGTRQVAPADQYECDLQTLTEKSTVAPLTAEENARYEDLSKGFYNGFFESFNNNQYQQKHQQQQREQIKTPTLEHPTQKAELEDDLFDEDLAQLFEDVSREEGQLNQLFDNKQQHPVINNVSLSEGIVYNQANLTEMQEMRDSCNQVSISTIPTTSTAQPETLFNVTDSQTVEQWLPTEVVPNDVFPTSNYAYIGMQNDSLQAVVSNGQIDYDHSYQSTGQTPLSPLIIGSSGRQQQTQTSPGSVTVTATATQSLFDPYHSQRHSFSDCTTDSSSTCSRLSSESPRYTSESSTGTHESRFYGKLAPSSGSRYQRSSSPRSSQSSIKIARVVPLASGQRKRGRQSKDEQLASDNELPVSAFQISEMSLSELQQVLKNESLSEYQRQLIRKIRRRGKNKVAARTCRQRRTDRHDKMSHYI

Paired box protein Pax-8 = Paired box protein Pax-8 (Homo sapiens, UniProt Q06710); assay: inhibitors of PAX8-driven TPO luciferase reporter, dose response, RMG-I cells, cherry-pick (AID 687027); format: functional, cell-based;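 also: luciferase reporter driven by Pax8 target thyroperoxidase promoter measured by SteadyGlo luminescence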
Chain of Paired box protein Pax-8 (Q06710 whole entry): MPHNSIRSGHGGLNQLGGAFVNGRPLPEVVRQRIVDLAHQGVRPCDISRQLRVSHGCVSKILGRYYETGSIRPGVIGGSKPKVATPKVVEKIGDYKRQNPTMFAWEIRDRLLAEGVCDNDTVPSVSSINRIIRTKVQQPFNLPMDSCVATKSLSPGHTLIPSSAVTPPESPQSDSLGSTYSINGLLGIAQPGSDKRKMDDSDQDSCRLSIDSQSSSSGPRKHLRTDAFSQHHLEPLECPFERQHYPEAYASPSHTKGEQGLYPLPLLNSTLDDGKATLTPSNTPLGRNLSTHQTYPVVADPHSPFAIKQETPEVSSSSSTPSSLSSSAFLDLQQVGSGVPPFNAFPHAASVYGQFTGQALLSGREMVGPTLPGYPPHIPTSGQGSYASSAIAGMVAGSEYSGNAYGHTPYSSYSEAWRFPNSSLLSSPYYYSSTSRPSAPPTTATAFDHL

[1] = control 3'UTR Renilla luciferase suppression, dose response, counter-screen for Shn3 inhibitor project, cell-based, Clone20-Shn3RL, cherry-picked (AID 624133); format: functional
HEK293 = assay: inhibitors of LMP1-driven NF-kB reporter, dose response, cell-based, HEK293, luciferase, cherry-pick (AID 588343); format: functional; conditions: Homo sapiens
[2] = Shn3 3'UTR reporter inhibitors, dose response, cell-based, Clone20 osteoblasts, firefly luciferase, cherry-picked (AID 624132); format: functional;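 also: firefly luciferase luminescence from reporter carrying the Shn3 3'UTR in osteoblasts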
[3] = target: T2, DNA repair and recombination protein RAD54-like (Homo sapiens, UniProt Q92698); assay: inhibitors of human RAD54 branch migration, confirmation, biochemical, fluorescence, cherry-picked samples, dose series (AID 651657); format: functional
T2 sequence (Q92698 whole entry): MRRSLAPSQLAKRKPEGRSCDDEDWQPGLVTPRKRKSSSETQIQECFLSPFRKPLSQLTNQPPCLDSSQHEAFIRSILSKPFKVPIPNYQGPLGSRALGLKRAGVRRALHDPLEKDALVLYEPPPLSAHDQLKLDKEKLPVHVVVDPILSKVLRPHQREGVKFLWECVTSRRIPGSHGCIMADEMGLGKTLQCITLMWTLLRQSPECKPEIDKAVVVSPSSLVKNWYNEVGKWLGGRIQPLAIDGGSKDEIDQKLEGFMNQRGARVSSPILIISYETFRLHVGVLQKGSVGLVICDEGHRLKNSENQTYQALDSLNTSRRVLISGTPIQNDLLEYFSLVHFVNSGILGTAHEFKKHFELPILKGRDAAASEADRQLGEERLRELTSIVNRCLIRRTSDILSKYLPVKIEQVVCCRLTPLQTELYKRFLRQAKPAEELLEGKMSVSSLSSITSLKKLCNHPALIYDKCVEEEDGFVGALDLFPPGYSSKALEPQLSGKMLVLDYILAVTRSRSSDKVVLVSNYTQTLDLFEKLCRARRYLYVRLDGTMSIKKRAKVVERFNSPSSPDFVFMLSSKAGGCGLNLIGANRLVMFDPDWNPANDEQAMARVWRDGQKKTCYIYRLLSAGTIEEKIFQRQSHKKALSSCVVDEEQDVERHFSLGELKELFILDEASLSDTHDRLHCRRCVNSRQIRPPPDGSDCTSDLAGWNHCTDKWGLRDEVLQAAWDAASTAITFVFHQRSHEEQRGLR

[4] = target: T3, DNA repair protein RAD52 homolog (Homo sapiens, UniProt P43351); format: functional, biochemical
T3 sequence (P43351 whole entry): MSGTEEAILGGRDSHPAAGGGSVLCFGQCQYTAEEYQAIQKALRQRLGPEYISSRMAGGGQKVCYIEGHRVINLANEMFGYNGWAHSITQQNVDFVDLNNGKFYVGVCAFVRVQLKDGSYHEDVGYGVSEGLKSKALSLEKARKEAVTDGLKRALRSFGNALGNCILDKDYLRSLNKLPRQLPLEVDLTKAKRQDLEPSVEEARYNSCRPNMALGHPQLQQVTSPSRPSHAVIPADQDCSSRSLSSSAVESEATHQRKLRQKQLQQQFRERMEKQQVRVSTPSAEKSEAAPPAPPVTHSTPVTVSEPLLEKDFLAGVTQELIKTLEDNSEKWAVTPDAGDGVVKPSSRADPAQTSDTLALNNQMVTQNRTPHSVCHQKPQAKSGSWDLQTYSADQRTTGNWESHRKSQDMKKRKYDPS

Beta-galactosidase [5] = target: T4, Beta-galactosidase (Escherichia coli, UniProt Q8VNN2); assay: Dose response counterscreen for EBI2 assay utilizing the enzyme, b-galactosidase.; format: functional
T4 sequence (Q8VNN2 whole entry): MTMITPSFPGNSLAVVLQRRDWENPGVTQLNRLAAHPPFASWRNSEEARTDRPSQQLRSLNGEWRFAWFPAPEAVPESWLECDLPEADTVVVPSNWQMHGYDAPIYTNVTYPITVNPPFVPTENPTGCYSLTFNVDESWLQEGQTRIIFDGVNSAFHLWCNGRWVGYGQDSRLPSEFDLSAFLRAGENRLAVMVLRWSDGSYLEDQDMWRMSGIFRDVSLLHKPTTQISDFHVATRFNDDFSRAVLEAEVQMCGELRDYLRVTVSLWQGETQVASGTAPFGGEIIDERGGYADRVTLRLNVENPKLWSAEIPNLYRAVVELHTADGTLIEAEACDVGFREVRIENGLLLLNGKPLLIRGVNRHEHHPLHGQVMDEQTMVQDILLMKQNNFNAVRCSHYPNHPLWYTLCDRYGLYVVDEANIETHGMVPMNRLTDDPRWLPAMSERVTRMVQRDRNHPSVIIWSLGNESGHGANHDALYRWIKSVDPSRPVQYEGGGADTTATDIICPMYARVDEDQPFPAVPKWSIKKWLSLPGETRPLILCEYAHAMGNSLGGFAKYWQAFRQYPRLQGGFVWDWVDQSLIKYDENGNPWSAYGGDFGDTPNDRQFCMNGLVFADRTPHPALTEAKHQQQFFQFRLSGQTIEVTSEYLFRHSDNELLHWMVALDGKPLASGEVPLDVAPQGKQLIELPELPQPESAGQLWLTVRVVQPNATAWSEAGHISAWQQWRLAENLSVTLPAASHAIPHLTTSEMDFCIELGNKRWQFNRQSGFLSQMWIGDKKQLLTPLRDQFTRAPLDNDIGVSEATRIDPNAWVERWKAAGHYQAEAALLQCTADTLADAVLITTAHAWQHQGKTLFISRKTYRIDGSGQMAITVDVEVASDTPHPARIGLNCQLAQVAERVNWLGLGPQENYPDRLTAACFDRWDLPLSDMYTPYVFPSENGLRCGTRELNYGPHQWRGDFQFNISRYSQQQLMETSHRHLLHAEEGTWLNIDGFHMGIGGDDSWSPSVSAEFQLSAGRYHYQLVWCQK

[6] = target: T5, Ubiquitin-conjugating enzyme E2 N (Homo sapiens, UniProt P61088); format: functional;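 also: Dose-response confirmation in a TR-FRET assay detecting UBC13-driven polyubiquitin chain formation, inhibition measured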
T5 sequence (P61088 whole entry): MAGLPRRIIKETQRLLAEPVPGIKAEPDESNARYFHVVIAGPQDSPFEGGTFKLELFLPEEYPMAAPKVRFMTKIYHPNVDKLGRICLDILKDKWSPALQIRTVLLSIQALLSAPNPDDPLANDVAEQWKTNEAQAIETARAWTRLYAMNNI

[7] = target: T6, Type-1 angiotensin II receptor (Homo sapiens, UniProt P30556); assay: AT1 receptor antagonists, dose response, selectivity assay for APJ receptor antagonist project, cell-based, uHTS hits (AID 463214); format: functional;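 also: antagonist potency against angiotensin II stimulated AT1 response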
T6 sequence (P30556 whole entry): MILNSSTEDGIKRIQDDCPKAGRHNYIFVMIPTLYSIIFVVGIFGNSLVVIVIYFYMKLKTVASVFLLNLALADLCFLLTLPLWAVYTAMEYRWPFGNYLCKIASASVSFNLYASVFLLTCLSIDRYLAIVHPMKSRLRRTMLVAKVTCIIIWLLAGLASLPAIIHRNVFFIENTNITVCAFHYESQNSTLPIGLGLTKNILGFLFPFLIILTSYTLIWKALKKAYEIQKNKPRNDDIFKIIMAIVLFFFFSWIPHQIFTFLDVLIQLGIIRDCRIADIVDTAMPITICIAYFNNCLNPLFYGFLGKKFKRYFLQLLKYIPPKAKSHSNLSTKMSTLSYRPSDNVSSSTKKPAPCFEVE

Beta-galactosidase [8] = target: T4, Beta-galactosidase; assay: PubChem AID 485352; format: functional
[9] = HEp-2 cell cytotoxicity, dose response, cytotoxicity control for RSV inhibitor project, HTS (AID 2410); format: functional; conditions: human respiratory syncytial virus
[10] = target: T7, Adenosylmethionine-8-amino-7-oxononanoate aminotransferase (Mycobacterium tuberculosis, UniProt P9WQ81); assay: Mycobacterium tuberculosis BioA enzyme inhibitor Measured in Biochemical System Using Plate Reader - 2163-02_Inhibitor_Dose_CherryPick_Activity.; format: functional, Mycobacterium tuberculosis UT205
T7 sequence (P9WQ81 whole entry): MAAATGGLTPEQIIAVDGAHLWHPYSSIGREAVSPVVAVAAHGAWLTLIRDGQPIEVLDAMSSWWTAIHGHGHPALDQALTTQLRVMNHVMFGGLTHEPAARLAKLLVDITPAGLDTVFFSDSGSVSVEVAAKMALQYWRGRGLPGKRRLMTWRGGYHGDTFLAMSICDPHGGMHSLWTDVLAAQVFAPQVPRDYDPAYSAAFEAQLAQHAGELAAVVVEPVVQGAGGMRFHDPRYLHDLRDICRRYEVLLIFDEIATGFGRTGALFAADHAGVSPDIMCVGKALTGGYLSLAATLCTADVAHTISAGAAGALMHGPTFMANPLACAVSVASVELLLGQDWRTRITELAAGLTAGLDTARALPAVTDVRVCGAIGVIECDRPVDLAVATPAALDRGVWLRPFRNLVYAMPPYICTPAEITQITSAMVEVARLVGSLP

[11] = inhibitors of intracellular T. cruzi replication, confirmation, NIH3T3 host cells, beta-gal luminescence (AID 2044); format: functional, cell-based;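 also: intracellular parasites grown in NIH/3T3 mouse fibroblasts as host cells; luminescent beta-galactosidase reporter signal from transgenic T. cruzi replicating inside host cells; inhibitors lower the luminescence signal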
[12] = cytotoxicity toward NIH3T3 fibroblasts, dose response, counter-screen, cell-based, ATP luminescence, mouse fibroblasts (AID 2010); format: functional;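 also: cells exposed to compound for about 90 hours before reading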
[13] = target: T8, Corticotropin-releasing factor receptor 2/Corticotropin-releasing factor-binding protein (Homo sapiens, UniProt P24387+Q13324); assay: activators of CRF receptor 2 with binding protein – uHTS hits, confirmation (AID 602473); format: functional; conditions: read-out: EC50_Mean
T8 sequence (Q13324 whole entry): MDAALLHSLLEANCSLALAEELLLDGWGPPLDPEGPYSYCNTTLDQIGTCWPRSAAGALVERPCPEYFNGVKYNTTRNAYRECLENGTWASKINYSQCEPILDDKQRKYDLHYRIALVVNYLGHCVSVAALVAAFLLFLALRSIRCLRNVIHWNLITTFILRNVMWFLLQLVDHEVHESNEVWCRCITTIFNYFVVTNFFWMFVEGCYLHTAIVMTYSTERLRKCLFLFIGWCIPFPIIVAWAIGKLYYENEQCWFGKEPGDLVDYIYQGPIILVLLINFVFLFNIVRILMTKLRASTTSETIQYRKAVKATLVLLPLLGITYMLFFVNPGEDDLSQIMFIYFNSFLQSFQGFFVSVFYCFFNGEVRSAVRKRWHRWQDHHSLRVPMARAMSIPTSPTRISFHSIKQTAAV
T8 sequence (P24387 whole entry): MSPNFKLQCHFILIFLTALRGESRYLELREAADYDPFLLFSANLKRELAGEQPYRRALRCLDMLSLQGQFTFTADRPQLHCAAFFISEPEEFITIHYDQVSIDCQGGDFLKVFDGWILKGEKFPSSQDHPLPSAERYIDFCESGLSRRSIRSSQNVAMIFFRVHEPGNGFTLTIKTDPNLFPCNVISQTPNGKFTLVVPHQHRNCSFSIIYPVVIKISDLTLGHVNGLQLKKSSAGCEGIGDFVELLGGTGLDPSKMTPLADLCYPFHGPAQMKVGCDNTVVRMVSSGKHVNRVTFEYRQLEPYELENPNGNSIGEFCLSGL

[14] = target: T9, Low molecular weight phosphotyrosine protein phosphatase (Homo sapiens, UniProt P24666); format: functional; conditions: read-out: IC50_Mean;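 also: Dose-response confirmation assay measuring inhibition of LMPTP enzyme activity by fluorescence intensity read-out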
T9 sequence (P24666 whole entry): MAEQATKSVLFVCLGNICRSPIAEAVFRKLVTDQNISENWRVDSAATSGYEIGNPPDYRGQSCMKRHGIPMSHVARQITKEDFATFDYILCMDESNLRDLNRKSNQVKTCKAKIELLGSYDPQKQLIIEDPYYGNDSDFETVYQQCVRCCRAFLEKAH

COc1ccccc1-n1cc([C@@H]2C[C@H]3CN(c4ccccc4)C(=O)[C@]34CCCN24)cn1
IC50 (Protein skinhead-1): > 100 µM (inactive)
AC50 (Paired box protein Pax-8): 5.21 µM (active)
AC50 [1]: 1.8 µM (active)
AC50 (HEK293): 19 µM (active)
AC50 [2]: 1.46 µM (active)

CCN1CCN(C(S)=Nc2ccc3nc(N4CCN(C)CC4)cc(C)c3c2)CC1
AC50 [3]: 91.2 µM (active)
AC50 [4]: 4.49 µM (active)

O=C(COc1ccc(Br)cc1)N1CCN(C2CCCC2)CC1
IC50 (Beta-galactosidase [5]): > 80 µM (inactive)

Cc1nc2ccccc2c2oc(C(=O)N3CCC(N4CCCCC4)CC3)cc12
AC50 [3]: 23.1 µM (active)
IC50 [6]: > 20 µM (inactive)

O=C(c1ccc(-n2cnnn2)cc1)N1CCN(C(c2ccccc2)c2ccccc2)CC1
IC50 (Beta-galactosidase [5]): > 80 µM (inactive)

S=C(N/N=C/c1ccccc1)N1CCOCC1
IC50 [7]: 13.3 µM (active)
EC50 (Beta-galactosidase [8]): > 40 µM (inactive)

CC(C)(C)c1nnc(N/N=C/c2ccc(Br)cc2)n(N)c1=O
IC50 (Beta-galactosidase [5]): > 80 µM (inactive)

O=C(Nc1ccc(F)c(F)c1)c1ccc(-n2cncn2)c([N+](=O)[O-])c1
CC50 [9]: 18.3 µM (active)
AC50 [10]: 1.49 µM (active)

COc1ccc(NC(=O)Nc2cccc3c2O[C@@H](CN(C)CC2CCCCC2)[C@@H](C)CN([C@H](C)CO)C3=O)cc1
IC50 [7]: > 40 µM (not active)
EC50 (Beta-galactosidase [8]): > 40 µM (inactive)

O=C1OCC(CO)(CO)N=C1NNc1cc(Cl)ccc1Cl
IC50 [7]: 12.1 µM (active)
EC50 (Beta-galactosidase [8]): > 40 µM (inactive)

CC1=C(C#N)C(c2cccnc2)C2=C(O)CC(c3ccc(Cl)cc3)CC2=N1 (stereo not drawn)
AC50 [10]: 0.67 µM (active)
EC50 [11]: 2.26 µM (active)
EC50 [12]: 21.8 µM (active)

Cc1ccc(/C=C/c2ccc3cccc(O)c3n2)s1
IC50 (Protein skinhead-1): > 100 µM (inactive)

O=C(CN1CCCCC1)n1c2ccccc2c2ccccc21
AC50 [3]: 12.1 µM (active)
AC50 [4]: 5.64 µM (active)

COc1ccccc1S(=O)(=O)N1CC[C@@H]2[C@H](CO)Nc3ccc(-c4cccc(C#N)c4)cc3[C@@H]21
AC50 [10]: 18.5 µM (active)

C=C(C)CSc1nc(N)c2c3c(sc2n1)CCC3
AC50 [10]: 18.2 µM (active)
EC50 [13]: > 53 µM (inactive)

Cn1c(CCN2CCN(c3ccccn3)CC2)nc2cc(NC(=O)COc3ccc([N+](=O)[O-])cc3)ccc21
IC50 [14]: 8.47 µM (active)

NC(=O)C1CCCN(C(=O)NC2CCCCC2)C1 (stereo not drawn)
IC50 (Protein skinhead-1): > 100 µM (inactive)

Clc1ccc(-c2csc(-c3ccncc3)n2)cc1
IC50 (Protein skinhead-1): 4.45 µM (active)

CCn1c2ccccc2c2cc(/C=N/NC(=O)c3ccccc3)ccc21
AC50 (HEK293): 3.99 µM (active)
